No end group written: not given here.
T1: semi-synthetic Ribonuclease (PDB ID 1SSC), immobilised as MBP-8xHis-1SSC (Bos taurus, UniProt P61823)
T1 construct: made in house; host or cells: E. coli BL21 (DE3) T1R
T1 sequence (P61823 27-138 limits assumed): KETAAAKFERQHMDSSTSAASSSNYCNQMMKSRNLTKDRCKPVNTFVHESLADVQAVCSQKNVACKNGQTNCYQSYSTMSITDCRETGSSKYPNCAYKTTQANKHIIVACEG

T2: semi-synthetic Ribonuclease (PDB ID 1SSC), MBP-8xHis fusion construct (UniProt P61823 27-138)
T2 construct: also called MBP-8xHis-1SSC; psfRNAseA; source: E. coli BL21 (DE3) T1R, purified (IMAC, size exclusion chromatography)
T2 sequence: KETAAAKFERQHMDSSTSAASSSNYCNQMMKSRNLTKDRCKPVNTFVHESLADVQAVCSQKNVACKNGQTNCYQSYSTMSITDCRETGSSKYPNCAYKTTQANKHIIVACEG


Experiments:
[1] = biological target: T1, semi-synthetic Ribonuclease (PDB ID 1SSC), immobilised as MBP-8xHis-1SSC; experiment: biochemical; assay type: binding
[2] = biological target: T2, semi-synthetic Ribonuclease (PDB ID …); experiment: SPR; MBP-8xHis-1SSC immobilised to about 12000 RU by amine coupling on a CM5 chip; peptides as analytes, single-cycle kinetics, 2 nM to 20 uM; 25 °C; HBS-EP+ (10 mM HEPES pH 7.4, 3 mM EDTA, 150 mM NaCl, 0.05% Tween-20); Biacore 8K; 1:1 binding model; conditions: both partners purified

Molecule | Kd [1] | Kd [2]
PYVPVHFDASV [PYVPVHFDASV] | 1220 nM | 
PYVPVHFDASV (also called WT; positive control; source: synthetic peptide) [known peptide binder (11 residues) of the semi-synthetic Ribonuclease, PYVPVHFDASV] |  | 1200 nM

— PMC12280060, “Design of linear and cyclic peptide binders from protein sequence information” (Communications Chemistry, 2025)
